Experimental data taken from PubChem BioAssay (NCI).
Several values for one entry are separate records, joined by “and”; a condition that tells them apart may be missing. Equal entries are not always repeated.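 Results reflect a 48-hour exposure of cells in 96-well plates to compound at five concentrations. The concentration for 50% growth inhibition is given as GI50. The concentration for full growth arrest is given as TGI.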

What was measured:
Test in all cases: inhibition of tumour cell growth, NCI panel, 48 h
HCT-116 colon = tested on: HCT-116 colon
HOP-92 NSCLC = tested on: HOP-92 NSCLC
A498 renal = tested on: A498 renal
ACHN renal = tested on: ACHN renal
A549 NSCLC = tested on: A549 NSCLC
SK-OV-3 ovarian = tested on: SK-OV-3 ovarian
SNB-19 CNS = tested on: SNB-19 CNS
MOLT-4 leukemia = tested on: MOLT-4 leukemia
MCF7 breast = tested on: MCF7 breast
OVCAR-5 ovarian = tested on: OVCAR-5 ovarian

SMILES	TGI (HCT-116 colon)	TGI (HOP-92 NSCLC)	TGI (A498 renal)	TGI (ACHN renal)	TGI (A549 NSCLC)	TGI (SK-OV-3 ovarian)	TGI (SNB-19 CNS)	TGI (MOLT-4 leukemia)	GI50 (HCT-116 colon) [µM]	GI50 (MCF7 breast) [µM]	TGI (MCF7 breast) [µM]	GI50 (ACHN renal) [µM]	GI50 (A549 NSCLC) [µM]	GI50 (OVCAR-5 ovarian)	TGI (OVCAR-5 ovarian)	GI50 (SNB-19 CNS) [µM]	GI50 (MOLT-4 leukemia) [µM]	GI50 (HOP-92 NSCLC)	GI50 (SK-OV-3 ovarian) [µM]	GI50 (A498 renal) [µM]
CCOC(=O)C1=C(C)N(Cc2ccccc2)C(=O)C1CC#N (configuration not stated)	> 100 µM	82.5 µM	> 100 µM	> 100 µM	> 100 µM	> 100 µM	> 100 µM	> 100 µM												
CCN(CC)CCOc1ccc(/C=C2\C[C@H]3[C@H]4CC=C5C[C@@H](O)CC[C@]5(C)[C@H]4CC[C@]3(C)[C@H]2O)cc1OC	> 50 µM			17.4 µM	25 µM		> 50 µM	> 50 µM	14.6	12.4	> 50	9.23	10.7	9.44 µM	18.6 µM	17.1	10.5			
C=C(C)C1CC=C(C)CC1 (configuration not stated)	> 100 µM and 1620 µM	> 100 µM and 1530 µM	1610 µM	> 100 µM and 1570 µM	> 100 µM and 1790 µM	> 100 µM and 1900 µM	> 100 µM and 1870 µM	> 100 µM and 2180 µM	> 100			> 100	> 100	> 100 µM	> 100 µM and 2420 µM	> 100	> 100	> 100 µM	> 100	
COC(=O)NC(=Nc1ccc(Oc2ccccc2)cc1NC=O)NC(=O)OC	28 µM	> 100 µM	1.08 µM	> 100 µM	> 100 µM	0.526 µM	> 100 µM	> 100 µM							> 100 µM					
COc1ccc2c(c1)C1OCCNC1CC2 (configuration not stated)	> 100 µM		> 100 µM	> 100 µM	> 100 µM	> 100 µM	> 100 µM	> 100 µM			> 100				> 100 µM					
O=C(CC1(O)C(=O)Nc2ccccc21)c1ccc(F)cc1 (configuration not stated)	> 100 µM	> 100 µM	> 100 µM	> 100 µM	> 100 µM	> 100 µM	> 100 µM	> 100 µM							> 100 µM					
C1COCCOCCOCCOCCOCCO1.[Cl][Sn]([Cl])([c]1ccccc1)[c]1ccccc1	17.3 µM	4.52 µM	11.9 µM	22.8 µM	34.4 µM	30.2 µM	14.5 µM	14.5 µM	5.53			10.9	20.2	17.8 µM	31.6 µM	6.48	3.21	2.26 µM	16.6	3.12
C/C=C(/CCC1NCCC2c3ccccc3NC12)[Si](C)(C)C (configuration not stated)	11.9 µM	18.8 µM		27.2 µM	29.2 µM	29.1 µM	29 µM	16.4 µM							20 µM					
CSc1nc2c(nc(N)n2C2OC(COC(C)=O)C(OC(C)=O)C(OC(C)=O)C2OC(C)=O)c(=O)n1C (configuration not stated)	> 100 µM	> 100 µM	> 100 µM	> 100 µM	> 100 µM	> 100 µM	> 100 µM	> 100 µM							> 100 µM					
CC(=O)[CH-]C(=O)c1ccccc1.CC(=O)[CH-]C(=O)c1ccccc1.CC[C@H](/C=C/C(C)[C@H]1CCC2[C@@H]3CC=C4C[C@@H]([O-])CC[C@]4(C)C3CC[C@@]21C)C(C)C.CC[O-].[Ti+4] (some centres not stated)	> 100 µM	> 100 µM	> 100 µM	> 100 µM	> 100 µM	> 100 µM	> 100 µM	> 100 µM	> 100			16.2	> 100	> 100 µM	> 100 µM	> 100	> 100	95.3 µM	> 100	> 100
Cn1c(=O)c2ccc(-c3ccc(Br)cc3)nc2n(C)c1=O	> 100 µM	> 100 µM	> 100 µM		> 100 µM	> 100 µM	> 100 µM	> 100 µM							> 100 µM					
C=C1COC(O)(C2OCOC(C3CC(=O)NC(=O)C3)C2O)C1C (configuration not stated)	0.0337 µM and 0.0335 µM	0.0354 µM and 0.045 µM	0.0052 µM and 0.00554 µM	0.198 µM and 0.0355 µM	0.0303 µM and 0.0326 µM	0.052 µM		0.00804 µM and 0.00522 µM	0.00288			0.00352	0.00282	0.00331 µM and 0.017 µM	0.0499 µM and 0.0546 µM	0.0036	0.00124	0.00585 µM and 0.0117 µM	0.00429	
CC(=O)[CH-]C(=O)c1ccccc1.CC(=O)[CH-]C(=O)c1ccccc1.CC1(C)OCC(C2OC3OC(C)(C)OC3C2[O-])O1.CC1(C)OCC(C2OC3OC(C)(C)OC3C2[O-])O1.[Ti+4] (configuration not stated)	32.1 µM	22.8 µM	30.2 µM	38.1 µM	38 µM	50.3 µM		> 100 µM	14.4			16.4	15.3	12.3 µM	29 µM		7.39	6.84 µM	14.9	15.7
COc1cccc(NC(=O)C(C)(C)C)c1SSc1c(NC(=O)C(C)(C)C)cccc1OC	42.8 µM	> 86 µM	> 100 µM	> 100 µM	> 100 µM	> 100 µM	> 100 µM	> 70.6 µM							53.2 µM					
O=C(NNc1ccc(F)cc1)C1CCC(CNS(=O)(=O)c2ccc(Cl)c(Cl)c2)CC1 (configuration not stated)	33.9 µM	37.5 µM		13.4 µM	4.93 µM	> 50 µM	> 50 µM		6.51	7.73	> 50	4.08	0.842	7.7 µM	25.2 µM	> 50		7.35 µM	28.9	
Cn1cc(-c2csc(-c3cn(CCCCN4CCCCC4)c4ccc(F)cc34)n2)c2cccnc21		27.8 µM	3.28 µM		3.04 µM	32.7 µM							1.67	2.86 µM	11.3 µM			4.81 µM	16.2	1.6
COc1cc(/C=C2\Oc3cc(OCCCN4CCCC4)ccc3C2=O)cc(OC)c1	8.34 µM	16.8 µM		10.7 µM	14.8 µM	26.1 µM	13.4 µM	9.19 µM	2.78	2.94	13.4	3.13	3.44	12.5 µM	25.4 µM	3.31	2.59	3.2 µM	12.9	
